Reference: ChEMBL document CHEMBL5126613, “Novel CA(1-7)M(2-9) Analogs: Synthesis, Characterization, and Antibacterial Evaluation” (ACS Med Chem Lett, 2022)
≈ marks a conversion by molar mass, not a printed value.

Legend:
[1] = Hemolytic activity in sheep RBC assessed as hemolysis incubated for 30 mins by microplate reader method; assay type: toxicity, cell-based, Ovis aries, Erythrocyte; details: sheep red blood cells (erythrocytes), read-out: Activity
Bacillus subtilis = experiment: Antibacterial activity against Bacillus subtilis ATCC 6051 assessed as reduction in bacterial growth measured for 18 to 20 hrs by microbroth dilution method; assay type: functional; details: time 18-20 hrs
[2] = (§1) Selectivity index, ratio of HC50 for hemolytic activity in sheep RBC assessed as 50% hemolysis incubated for 30 mins by microplate reader method to MIC for antibacterial activity against Staphylococcus aureus ATCC 29213 assessed as reduction in bacterial growth measured for 18 to 20 hrs by microbroth dilution method; assay type: toxicity; details: sheep red blood cells (erythrocytes), read-out: Selectivity Index
[3] = as §1, with “Pseudomonas aeruginosa” for “Staphylococcus aureus”, “27853” for “29213”; assay type: toxicity; details: sheep red blood cells (erythrocytes), read-out: Selectivity Index
[4] = Hemolytic activity in sheep RBC assessed as 50% hemolysis incubated for 30 mins by microplate reader method; assay type: toxicity, cell-based, Ovis aries, Erythrocyte; details: sheep red blood cells (erythrocytes)
[5] = as §1, with “Bacillus subtilis” for “Staphylococcus aureus”, “6051” for “29213”; assay type: toxicity; details: sheep red blood cells (erythrocytes), read-out: Selectivity Index
Staphylococcus aureus = experiment: Antibacterial activity against Staphylococcus aureus ATCC 29213 assessed as reduction in bacterial growth measured for 18 to 20 hrs by microbroth dilution method; assay type: functional; details: time 18-20 hrs
[6] = as §1, with “Escherichia coli” for “Staphylococcus aureus”, “25922” for “29213”; assay type: toxicity; details: sheep red blood cells (erythrocytes), read-out: Selectivity Index
Pseudomonas aeruginosa = experiment: Antibacterial activity against Pseudomonas aeruginosa ATCC 27853 assessed as reduction in bacterial growth measured for 18 to 20 hrs by microbroth dilution method; assay type: functional; details: time 18-20 hrs
Escherichia coli = experiment: Antibacterial activity against Escherichia coli ATCC 25922 assessed as reduction in bacterial growth measured for 18 to 20 hrs by microbroth dilution method; assay type: functional; details: time 18-20 hrs
Erythrocyte = experiment: Hemolytic activity in sheep RBC assessed as hemolysis at 1000 ug/ml incubated for 30 mins by microplate reader method; assay type: toxicity, cell-based, Ovis aries; details: 0.5 h, dose 1000 µg/ml

Molecule | hemolysis at 0.5 h [1] | MIC (Bacillus subtilis) | selectivity ratio at 30 min [2] | selectivity ratio at 30 min [3] | HC50 at 0.5 h [4] | selectivity ratio at 30 min [5] | MIC (Staphylococcus aureus) | selectivity ratio at 30 min [6] | MIC (Pseudomonas aeruginosa) | MIC (Escherichia coli) | Activity (Erythrocyte)
H-KWRLFKKIGAVLKVL-NH2 | 10% | 32 µg/mL | 188 | 94 | 750 µg/mL | 23 | 4 µg/mL | 188 | 8 µg/mL | 4 µg/mL | –
CC[C@H](C)[C@H](NC(=O)[C@H](CCCN)NC(=O)[C@H](CCCN)NC(=O)[C@H](Cc1ccccc1)NC(=O)[C@H](CC(C)C)NC(=O)[C@H](CCCN)NC(=O)[C@H](Cc1c[nH]c2ccccc12)NC(=O)[C@@H](N)CCCN)C(=O)NCC(=O)N[C@@H](C)C(=O)N[C@H](C(=O)N[C@@H](CC(C)C)C(=O)N[C@@H](CCCN)C(=O)N[C@H](C(=O)N[C@@H](CC(C)C)C(N)=O)C(C)C)C(C)C | – | 32 µg/mL (≈ 18.8 µM) | – | – | – | – | 8 µg/mL (≈ 4.71 µM) | – | 8 µg/mL (≈ 4.71 µM) | 4 µg/mL (≈ 2.35 µM) | –
H-KWKLFRKIGAVLKVL-NH2 | 10% | 64 µg/mL | 234 | 117 | 935 µg/mL | 15 | 4 µg/mL | 234 | 8 µg/mL | 4 µg/mL | –
H-KWKLFKRIGAVLKVL-NH2 | 10% | 64 µg/mL | > 250 | > 125 | > 1000 µg/mL | > 16 | 4 µg/mL | > 250 | 8 µg/mL | 4 µg/mL | –
H-KWKLFKKIGAVLRVL-NH2 | 10% | 32 µg/mL | 70 | 35 | 280 µg/mL | 9 | 4 µg/mL | 70 | 8 µg/mL | 4 µg/mL | –
H-RWRLFRRIGAVLRVL-NH2 | – | 16 µg/mL | 29 | 58 | 230 µg/mL | 14 | 8 µg/mL | 58 | 4 µg/mL | 4 µg/mL | Toxic
